Source: PubChem BioAssay AID1918930 (Molecular Pharmacology Branch, DTP, NCI, 2023)
Where “and” joins values, the source holds several entries; their conditions need not be identical. Equal entries are not always repeated.

Test system: 233499-124-R-J3-PDC complex spheroid viability, % test/control
Assay: Anticancer human tumor 233499-124-R-J3-PDC patient-derived colon adenocarcinoma cell line growth inhibition
Conditions: for viability, T/C: stronger effect = lower value
Procedure, shortened: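 Complex spheroids of tumor cells with HUVEC and human MSCs, exposed to iadademstat combined with other agents. Each agent tested in half-log steps from near clinical Cmax (else 10 microM top), DMSO ≤0.25%.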

[1] = curve of first compound, second compound 0.1 µM
[2] = curve of first compound, second compound 0.316 µM
[3] = curve of first compound, second compound 1 µM
[4] = curve of first compound, second compound 3.16 µM
[5] = curve of first compound, second compound 10 µM
[6] = second compound 0.1 µM, first compound 0.0316 µM
[7] = second compound 0.1 µM, first compound 0.1 µM
[8] = second compound 0.1 µM, first compound 0.316 µM
[9] = second compound 0.1 µM, first compound 1 µM
[10] = second compound 0.316 µM, first compound 0.0316 µM
[11] = second compound 0.316 µM, first compound 0.1 µM
[12] = second compound 0.316 µM, first compound 0.316 µM
[13] = second compound 0.316 µM, first compound 1 µM
[14] = second compound 1 µM, first compound 0.0316 µM
[15] = second compound 1 µM, first compound 0.1 µM
[16] = second compound 1 µM, first compound 0.316 µM
[17] = second compound 1 µM, first compound 1 µM
[18] = second compound 3.16 µM, first compound 0.0316 µM
[19] = second compound 3.16 µM, first compound 0.1 µM
[20] = second compound 3.16 µM, first compound 0.316 µM
[21] = second compound 3.16 µM, first compound 1 µM
[22] = second compound 10 µM, first compound 0.0316 µM
[23] = second compound 10 µM, first compound 0.1 µM
[24] = second compound 10 µM, first compound 0.316 µM
[25] = second compound 10 µM, first compound 1 µM
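Note: spheroids exposed to agents for one week before readout.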

Nc1ncn(C2CC(O)C(CO)O2)c(=O)n1 (configuration not stated) + NC1CC1c1ccc(-c2cccc(O)c2)cc1
IC50 [1]: > 1 µM | IC50 [2]: > 1 µM | IC50 [3]: > 1 µM | IC50 [4]: > 1 µM | IC50 [5]: > 1 µM | viability, T/C (second compound 0.1 µM, first compound 0.00316 µM): 101% | viability, T/C (second compound 0.1 µM, first compound 0.01 µM): 98.9% | viability, T/C [6]: 86.8% | viability, T/C [7]: 81.2% | viability, T/C [8]: 89.6% | viability, T/C [9]: 108% | viability, T/C (second compound 0.316 µM, first compound 0.00316 µM): 120% | viability, T/C (second compound 0.316 µM, first compound 0.01 µM): 99.5% | viability, T/C [10]: 92.2% | viability, T/C [11]: 75% | viability, T/C [12]: 96.9% | viability, T/C [13]: 87.6% | viability, T/C (second compound 1 µM, first compound 0.00316 µM): 104% | viability, T/C (second compound 1 µM, first compound 0.01 µM): 89.9% | viability, T/C [14]: 72.9% | viability, T/C [15]: 83.7% | viability, T/C [16]: 69.1% | viability, T/C [17]: 88.4% | viability, T/C (second compound 3.16 µM, first compound 0.00316 µM): 82.5% | viability, T/C (second compound 3.16 µM, first compound 0.01 µM): 93.2% | viability, T/C [18]: 80.4% | viability, T/C [19]: 74.4% | viability, T/C [20]: 74.6% | viability, T/C [21]: 92% | viability, T/C (second compound 10 µM, first compound 0.00316 µM): 80.5% | viability, T/C (second compound 10 µM, first compound 0.01 µM): 83.9% | viability, T/C [22]: 80.5% | viability, T/C [23]: 60.9% | viability, T/C [24]: 58.1% | viability, T/C [25]: 90.9%

Nc1ccccc1NC(=O)c1ccc(CNC(=O)OCc2cccnc2)cc1
viability, T/C (compound 0.00949 µM): 90.9% and 83.5% | viability, T/C (compound 0.03 µM): 101% and 93.5% | viability, T/C (compound 0.0949 µM): 84.8% and 81% | viability, T/C (compound 0.3 µM): 90% and 63.2% | viability, T/C (compound 0.949 µM): 28.9% and 12.3% | viability, T/C (compound 3 µM): 4.68% and 3.17% | IC50 (curve of compound): 0.637 µM and 0.401 µM

COc1ccc([C@@H](O)c2cc(-c3ncnc4cc(N5CCOCC5)ccc34)c(F)cc2Cl)nn1 + NC1CCC(NC2CC2c2ccccc2)CC1
IC50 [1]: 4.14 µM | IC50 [2]: 3.72 µM | IC50 [3]: 4.02 µM | IC50 [4]: 4.02 µM | IC50 [5]: 2.79 µM | viability, T/C [6]: 102% | viability, T/C [7]: 82.3% | viability, T/C [8]: 86.9% | viability, T/C [9]: 81.8% | viability, T/C (second compound 0.1 µM, first compound 3.16 µM): 62.4% | viability, T/C (second compound 0.1 µM, first compound 10 µM): 12.6% | viability, T/C [10]: 102% | viability, T/C [11]: 96.8% | viability, T/C [12]: 86.7% | viability, T/C [13]: 79.8% | viability, T/C (second compound 0.316 µM, first compound 3.16 µM): 58.4% | viability, T/C (second compound 0.316 µM, first compound 10 µM): 10.8% | viability, T/C [14]: 94.4% | viability, T/C [15]: 79.2% | viability, T/C [16]: 64.7% | viability, T/C [17]: 74.1% | viability, T/C (second compound 1 µM, first compound 3.16 µM): 64% | viability, T/C (second compound 1 µM, first compound 10 µM): 12.8% | viability, T/C [18]: 85.4% | viability, T/C [19]: 83.8% | viability, T/C [20]: 75.2% | viability, T/C [21]: 67.5% | viability, T/C (second compound 3.16 µM, first compound 3.16 µM): 65.3% | viability, T/C (second compound 3.16 µM, first compound 10 µM): 9.45% | viability, T/C [22]: 92.6% | viability, T/C [23]: 95.1% | viability, T/C [24]: 63.1% | viability, T/C [25]: 57.4% | viability, T/C (second compound 10 µM, first compound 3.16 µM): 65.9% | viability, T/C (second compound 10 µM, first compound 10 µM): 11.2%

CCN(c1cc(-c2ccc(CN3CCOCC3)cc2)cc(C(=O)NCc2c(C)cc(C)[nH]c2=O)c1C)C1CCOCC1 + NC1CC1c1ccc(-c2cccc(O)c2)cc1
IC50 [1]: > 3 µM | IC50 [2]: > 3 µM | IC50 [3]: 2.5 µM | IC50 [4]: > 3 µM | IC50 [5]: 1.86 µM | viability, T/C (second compound 0.1 µM, first compound 0.00949 µM): 97.3% | viability, T/C (second compound 0.1 µM, first compound 0.03 µM): 99.1% | viability, T/C (second compound 0.1 µM, first compound 0.0949 µM): 111% | viability, T/C (second compound 0.1 µM, first compound 0.3 µM): 115% | viability, T/C (second compound 0.1 µM, first compound 0.949 µM): 98.4% | viability, T/C (second compound 0.1 µM, first compound 3 µM): 51.8% | viability, T/C (second compound 0.316 µM, first compound 0.00949 µM): 117% | viability, T/C (second compound 0.316 µM, first compound 0.03 µM): 124% | viability, T/C (second compound 0.316 µM, first compound 0.0949 µM): 112% | viability, T/C (second compound 0.316 µM, first compound 0.3 µM): 129% | viability, T/C (second compound 0.316 µM, first compound 0.949 µM): 98.5% | viability, T/C (second compound 0.316 µM, first compound 3 µM): 50.8% | viability, T/C (second compound 1 µM, first compound 0.00949 µM): 97% | viability, T/C (second compound 1 µM, first compound 0.03 µM): 99.7% | viability, T/C (second compound 1 µM, first compound 0.0949 µM): 93.7% | viability, T/C (second compound 1 µM, first compound 0.3 µM): 107% | viability, T/C (second compound 1 µM, first compound 0.949 µM): 85% | viability, T/C (second compound 1 µM, first compound 3 µM): 43.4% | viability, T/C (second compound 3.16 µM, first compound 0.00949 µM): 99% | viability, T/C (second compound 3.16 µM, first compound 0.03 µM): 105% | viability, T/C (second compound 3.16 µM, first compound 0.0949 µM): 90.5% | viability, T/C (second compound 3.16 µM, first compound 0.3 µM): 80.7% | viability, T/C (second compound 3.16 µM, first compound 0.949 µM): 77.2% | viability, T/C (second compound 3.16 µM, first compound 3 µM): 53.9% | viability, T/C (second compound 10 µM, first compound 0.00949 µM): 79.3% | viability, T/C (second compound 10 µM, first compound 0.03 µM): 88.6% | viability, T/C (second compound 10 µM, first compound 0.0949 µM): 84.7% | viability, T/C (second compound 10 µM, first compound 0.3 µM): 93.2% | viability, T/C (second compound 10 µM, first compound 0.949 µM): 65.8% | viability, T/C (second compound 10 µM, first compound 3 µM): 38.8%
